Values of other authors, collected in US6251620A, “Three dimensional structure of a ZAP tyrosine protein kinase fragment and modeling methods” (priority 1997, dated 2001).
Non-standard residues stand in square brackets, D forms with d. pY = N[C@@H](Cc1ccc(OP(=O)(O)O)cc1)C(=O)O; Nle = CCCC[C@H](N)C(=O)O

Key:
BDF1 mice = BDF1 mice given DBA/2 spleen:lymph node cells; usable as positive controls
MRL/Ipr-mice = settings: SLE
ZAP-NC = settings: in vitro binding of ZAP-NC with synthetic phosphopeptides (ref. 25)

Molecule	activity in CGVHD model (BDF1 mice)	binding hierarchy (ZAP-NC)	also measured
C=CC[C@@H]1/C=C(\C)C[C@H](C)C[C@H](OC)[C@H]2O[C@@](O)(C(=O)C(=O)N3CCCC[C@H]3C(=O)O[C@H](/C(C)=C/[C@@H]3CC[C@@H](O)[C@H](OC)C3)[C@H](C)[C@@H](O)CC1=O)[C@H](C)C[C@@H]2OC [FK506]	active in this model	–	side effects (kidney and central nervous system): serious side effects in the kidney and central nervous system; kidney toxicity (patients receiving FK506, in some cases kidney transplant required after the liver transplant): severe kidney toxicity has been observed
O=P1(N(CCCl)CCCl)NCCCO1 (centres unmarked) [cyclophosphamide]	active in this model	–	effect on course of disease (MRL/Ipr-mice): can prevent and reverse the course of disease
Cc1oncc1C(=O)Nc1ccc(C(F)(F)F)cc1 [leflunomide]	active in this model	–	effect on course of disease (MRL/Ipr-mice): can prevent and reverse the course of disease
C[C@]12C=CC(=O)C=C1CC[C@@H]1[C@@H]2[C@@H](O)C[C@@]2(C)[C@H]1CC[C@]2(O)C(=O)CO [prednisolone]	active in this model	–	–
Ac.Asn.Gln.Leu.pTyr.Asn.Glu.Leu.Asn.Leu.Gly.Arg.Arg.Glu.Glu.pTyr.Asp.Val.Leu.Asp.NH2 [Ligand 5]	–	.zeta.1 =.zeta.2 >ε=.zeta.3	–
Ac.Asp.Gly.Leu.pTyr.Gln.Gly.Leu.Ser.Thr.Ala.Thr.Lys.Asp.Thr.pTyr.Asp.Ala.Leu.His.NH2 (Ac-DGL[pY]QGLSTATKDT[pY]DALH-NH2; SMILES CC(=O)N[C@@H](CC(=O)O)C(=O)NCC(=O)N[C@@H](CC(C)C)C(=O)N[C@@H](Cc1ccc(OP(=O)(O)O)cc1)C(=O)N[C@@H](CCC(N)=O)C(=O)NCC(=O)N[C@@H](CC(C)C)C(=O)N[C@@H](CO)C(=O)N[C@H](C(=O)N[C@@H](C)C(=O)N[C@H](C(=O)N[C@@H](CCCCN)C(=O)N[C@@H](CC(=O)O)C(=O)N[C@H](C(=O)N[C@@H](Cc1ccc(OP(=O)(O)O)cc1)C(=O)N[C@@H](CC(=O)O)C(=O)N[C@@H](C)C(=O)N[C@@H](CC(C)C)C(=O)N[C@@H](Cc1c[nH]cn1)C(N)=O)[C@@H](C)O)[C@@H](C)O)[C@@H](C)O) [Ligand 7]	–	.zeta.1 =.zeta.2 >ε=.zeta.3	–
Ac.Gly.Leu.pTyr.Asn.Glu.Leu.Gln.Lys.Asp.Lys.Nle.Ala.Glu.Ala.pTyr.Ser.Glu.Ile.Gly.NH2 (Ac-GL[pY]NELQKDK[Nle]AEA[pY]SEIG-NH2; SMILES CCCC[C@H](NC(=O)[C@H](CCCCN)NC(=O)[C@H](CC(=O)O)NC(=O)[C@H](CCCCN)NC(=O)[C@H](CCC(N)=O)NC(=O)[C@H](CC(C)C)NC(=O)[C@H](CCC(=O)O)NC(=O)[C@H](CC(N)=O)NC(=O)[C@H](Cc1ccc(OP(=O)(O)O)cc1)NC(=O)[C@H](CC(C)C)NC(=O)CNC(C)=O)C(=O)N[C@@H](C)C(=O)N[C@@H](CCC(=O)O)C(=O)N[C@@H](C)C(=O)N[C@@H](Cc1ccc(OP(=O)(O)O)cc1)C(=O)N[C@@H](CO)C(=O)N[C@@H](CCC(=O)O)C(=O)N[C@H](C(=O)NCC(N)=O)[C@@H](C)CC) [Ligand 6]	–	.zeta.1 =.zeta.2 >ε=.zeta.3	–
